Assay results from PubChem BioAssay AID1963841 (Molecular Pharmacology Branch, DTP, NCI, 2024).

Test system: 439559-082-T-J2-PDC spheroid viability
Test: Anticancer human tumor 439559-082-T-J2-PDC patient-derived colon adenocarcinoma cell line growth inhibition [POLQ]
Conditions: spheroids with HUVEC and MSC; for IC50: curve of first compound; for viability, T/C: stronger effect = lower value
In short: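 Patient-derived tumour cells were co-cultured with HUVEC and mesenchymal stem cells as multicellular spheroids at 37 °C. They were treated with POLQ inhibitors (novobiocin, ART-558, RP6685) alone or combined with other agents. Top concentrations were at or near clinical Cmax (otherwise 10 microM; SN-38 at 1 microM), decreasing in half-log steps.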

[1] = second compound 0.0316 µM, first compound 0.0316 µM
[2] = second compound 0.0316 µM, first compound 0.1 µM
[3] = second compound 0.0316 µM, first compound 0.316 µM
[4] = second compound 0.0316 µM, first compound 1 µM
[5] = second compound 0.0316 µM, first compound 3.16 µM
[6] = second compound 0.0316 µM, first compound 10 µM
[7] = second compound 0.1 µM, first compound 0.0316 µM
[8] = second compound 0.1 µM, first compound 0.1 µM
[9] = second compound 0.1 µM, first compound 0.316 µM
[10] = second compound 0.1 µM, first compound 1 µM
[11] = second compound 0.1 µM, first compound 3.16 µM
[12] = second compound 0.1 µM, first compound 10 µM
[13] = second compound 0.316 µM, first compound 0.0316 µM
[14] = second compound 0.316 µM, first compound 0.1 µM
[15] = second compound 0.316 µM, first compound 0.316 µM
[16] = second compound 0.316 µM, first compound 1 µM
[17] = second compound 0.316 µM, first compound 3.16 µM
[18] = second compound 0.316 µM, first compound 10 µM
[19] = second compound 1 µM, first compound 0.0316 µM
[20] = second compound 1 µM, first compound 0.1 µM
[21] = second compound 1 µM, first compound 0.316 µM
[22] = second compound 1 µM, first compound 1 µM
[23] = second compound 1 µM, first compound 3.16 µM
[24] = second compound 1 µM, first compound 10 µM
[25] = second compound 3.16 µM, first compound 0.0316 µM
[26] = second compound 3.16 µM, first compound 0.1 µM
[27] = second compound 3.16 µM, first compound 0.316 µM
[28] = second compound 3.16 µM, first compound 1 µM
[29] = second compound 3.16 µM, first compound 3.16 µM
[30] = second compound 3.16 µM, first compound 10 µM
[31] = second compound 10 µM, first compound 0.0316 µM
[32] = second compound 10 µM, first compound 0.1 µM
[33] = second compound 10 µM, first compound 0.316 µM
[34] = second compound 10 µM, first compound 1 µM
[35] = second compound 10 µM, first compound 3.16 µM
[36] = second compound 10 µM, first compound 10 µM
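Also: spheroids exposed to compounds for seven days before readout.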
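For viability, T/C in this document: 100% = DMSO vehicle control viability.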

## O=c1[nH]cc(F)c(=O)[nH]1 + Cc1cccc(N(C)C(=O)C2C(O)CCN2c2nc(C)cc(C(F)(F)F)c2C#N)c1
Second compound 0.0316 µM
  IC50: > 10 µM
Second compound 0.1 µM
  IC50: > 10 µM
Second compound 0.316 µM
  IC50: > 10 µM
Second compound 1 µM
  IC50: > 10 µM
Second compound 3.16 µM
  IC50: > 10 µM
Second compound 10 µM
  IC50: > 10 µM
[1]
  viability, T/C: 102%
[2]
  viability, T/C: 93.3%
[3]
  viability, T/C: 82.2%
[4]
  viability, T/C: 78.3%
[5]
  viability, T/C: 71.9%
[6]
  viability, T/C: 66.7%
[7]
  viability, T/C: 106%
[8]
  viability, T/C: 91.4%
[9]
  viability, T/C: 80.8%
[10]
  viability, T/C: 76.6%
[11]
  viability, T/C: 73.4%
[12]
  viability, T/C: 70%
[13]
  viability, T/C: 104%
[14]
  viability, T/C: 97.4%
[15]
  viability, T/C: 84.6%
[16]
  viability, T/C: 75.1%
[17]
  viability, T/C: 73.1%
[18]
  viability, T/C: 68.8%
[19]
  viability, T/C: 97.5%
[20]
  viability, T/C: 94.4%
[21]
  viability, T/C: 84.3%
[22]
  viability, T/C: 73.7%
[23]
  viability, T/C: 76.7%
[24]
  viability, T/C: 71%
[25]
  viability, T/C: 93.1%
[26]
  viability, T/C: 94%
[27]
  viability, T/C: 84.5%
[28]
  viability, T/C: 72%
[29]
  viability, T/C: 71%
[30]
  viability, T/C: 68%
[31]
  viability, T/C: 91.8%
[32]
  viability, T/C: 83.3%
[33]
  viability, T/C: 78.7%
[34]
  viability, T/C: 70.8%
[35]
  viability, T/C: 71%
[36]
  viability, T/C: 64%

## CCc1cc2c(N3CCc4c(cc(Cn5ccnc5)cc4-c4cn(C)nc4C(F)(F)F)C3=O)cc(C)nc2c(OC)n1 + COC1C(OC(N)=O)C(O)C(Oc2ccc3c(O)c(NC(=O)c4ccc(O)c(CC=C(C)C)c4)c(=O)oc3c2C)OC1(C)C
Second compound 0.0316 µM
  IC50: > 10 µM
Second compound 0.1 µM
  IC50: > 10 µM
Second compound 0.316 µM
  IC50: > 10 µM
Second compound 1 µM
  IC50: > 10 µM
Second compound 3.16 µM
  IC50: > 10 µM
Second compound 10 µM
  IC50: > 10 µM
[1]
  viability, T/C: 104%
[2]
  viability, T/C: 103%
[3]
  viability, T/C: 98.8%
[4]
  viability, T/C: 102%
[5]
  viability, T/C: 95.4%
[6]
  viability, T/C: 91.4%
[7]
  viability, T/C: 102%
[8]
  viability, T/C: 101%
[9]
  viability, T/C: 91.7%
[10]
  viability, T/C: 95.2%
[11]
  viability, T/C: 92.7%
[12]
  viability, T/C: 94.3%
[13]
  viability, T/C: 95.5%
[14]
  viability, T/C: 93.9%
[15]
  viability, T/C: 102%
[16]
  viability, T/C: 97.7%
[17]
  viability, T/C: 94.9%
[18]
  viability, T/C: 101%
[19]
  viability, T/C: 99.4%
[20]
  viability, T/C: 105%
[21]
  viability, T/C: 103%
[22]
  viability, T/C: 95.7%
[23]
  viability, T/C: 94.3%
[24]
  viability, T/C: 93.3%
[25]
  viability, T/C: 93.1%
[26]
  viability, T/C: 101%
[27]
  viability, T/C: 96.6%
[28]
  viability, T/C: 90.4%
[29]
  viability, T/C: 95.7%
[30]
  viability, T/C: 94.4%
[31]
  viability, T/C: 105%
[32]
  viability, T/C: 94.4%
[33]
  viability, T/C: 93.6%
[34]
  viability, T/C: 91.2%
[35]
  viability, T/C: 95.7%
[36]
  viability, T/C: 83.8%

## O=C(c1cc(Cc2n[nH]c(=O)c3ccccc23)ccc1F)N1CCN(C(=O)C2CC2)CC1 + Nc1ccc(C#CCN(C(=O)Cc2ncc(C(F)(F)F)cc2C(F)(F)F)c2ccc(F)cc2)nn1
Second compound 0.0316 µM
  IC50: > 10 µM
Second compound 0.1 µM
  IC50: > 10 µM
Second compound 0.316 µM
  IC50: > 10 µM
Second compound 1 µM
  IC50: > 10 µM
Second compound 3.16 µM
  IC50: > 10 µM
Second compound 10 µM
  IC50: > 10 µM
[1]
  viability, T/C: 93.4%
[2]
  viability, T/C: 97.3%
[3]
  viability, T/C: 93.4%
[4]
  viability, T/C: 101%
[5]
  viability, T/C: 94.3%
[6]
  viability, T/C: 98%
[7]
  viability, T/C: 93.1%
[8]
  viability, T/C: 106%
[9]
  viability, T/C: 89.1%
[10]
  viability, T/C: 117%
[11]
  viability, T/C: 92.8%
[12]
  viability, T/C: 99.8%
[13]
  viability, T/C: 91.5%
[14]
  viability, T/C: 105%
[15]
  viability, T/C: 86.8%
[16]
  viability, T/C: 96.1%
[17]
  viability, T/C: 106%
[18]
  viability, T/C: 96.9%
[19]
  viability, T/C: 104%
[20]
  viability, T/C: 107%
[21]
  viability, T/C: 94.1%
[22]
  viability, T/C: 108%
[23]
  viability, T/C: 84.7%
[24]
  viability, T/C: 104%
[25]
  viability, T/C: 88%
[26]
  viability, T/C: 116%
[27]
  viability, T/C: 98.3%
[28]
  viability, T/C: 106%
[29]
  viability, T/C: 103%
[30]
  viability, T/C: 98.3%
[31]
  viability, T/C: 92.8%
[32]
  viability, T/C: 87.9%
[33]
  viability, T/C: 95.5%
[34]
  viability, T/C: 90.7%
[35]
  viability, T/C: 98.2%
[36]
  viability, T/C: 103%

## COc1cc(C2c3cc4c(cc3C(OC3OC5COC(C)OC5C(O)C3O)C3COC(=O)C23)OCO4)cc(OC)c1O (stereo not drawn) + COC1C(OC(N)=O)C(O)C(Oc2ccc3c(O)c(NC(=O)c4ccc(O)c(CC=C(C)C)c4)c(=O)oc3c2C)OC1(C)C
Second compound 0.0316 µM
  IC50: > 10 µM
Second compound 0.1 µM
  IC50: > 10 µM
Second compound 0.316 µM
  IC50: > 10 µM
Second compound 1 µM
  IC50: > 10 µM
Second compound 3.16 µM
  IC50: > 10 µM
Second compound 10 µM
  IC50: > 10 µM
[1]
  viability, T/C: 94.7%
[2]
  viability, T/C: 97.2%
[3]
  viability, T/C: 102%
[4]
  viability, T/C: 98%
[5]
  viability, T/C: 90%
[6]
  viability, T/C: 76.8%
[7]
  viability, T/C: 108%
[8]
  viability, T/C: 108%
[9]
  viability, T/C: 102%
[10]
  viability, T/C: 90.7%
[11]
  viability, T/C: 92.7%
[12]
  viability, T/C: 72.9%
[13]
  viability, T/C: 102%
[14]
  viability, T/C: 105%
[15]
  viability, T/C: 91%
[16]
  viability, T/C: 98.6%
[17]
  viability, T/C: 89.5%
[18]
  viability, T/C: 69.8%
[19]
  viability, T/C: 102%
[20]
  viability, T/C: 94.7%
[21]
  viability, T/C: 98.6%
[22]
  viability, T/C: 100%
[23]
  viability, T/C: 87.1%
[24]
  viability, T/C: 71.5%
[25]
  viability, T/C: 101%
[26]
  viability, T/C: 101%
[27]
  viability, T/C: 99.1%
[28]
  viability, T/C: 94.5%
[29]
  viability, T/C: 91.4%
[30]
  viability, T/C: 73.1%
[31]
  viability, T/C: 100%
[32]
  viability, T/C: 103%
[33]
  viability, T/C: 100%
[34]
  viability, T/C: 92.4%
[35]
  viability, T/C: 86.8%
[36]
  viability, T/C: 71.7%
